Common to all, as to assay type: biochemical
Assay [1] has as its target T1, human p70S6 kinase (p70S6K, kinase domain residues 1-421, T412E mutation) (Homo sapiens, UniProt P23443, T412E).
T1 construct: human p70S6 kinase domainresidues 1-421, containing a T412E mutation; made in house
Briefly: p70S6 kinase assay, Luciferase-Coupled Chemiluminescent Kinase assay (LCCA). The note with it: 5 μM ATP, 12 nM p70S6K; read-out: p70S6K inhibition IC50. As to the method:
(§1) Kinase activity and compound inhibition are investigated using one or more of the three assay formats described below. The ATP concentrations for each assay are selected to be close to the Michaelis-Menten constant (KM) for each individual kinase. Dose-response experiments are performed at 10 different inhibitor concentrations in a 384-well plate format. The data are fitted to four-parameter equation (2) below; where Y is the observed signal, X is the inhibitor concentration, Min is the background signal in the absence of enzyme (0% enzyme activity), Max is the signal in the absence of inhibitor (100% enzyme activity), IC50 is the inhibitor concentration at 50% enzyme inhibition and H represents the empirical Hill's slope to measure the cooperativity. Typically H is close to unity. Y=Min+(Max−Min)/(1+(X/IC50)^H) Equation (2) p70S6 Kinase Assay
Biochemical activity of p70S6 kinase was assessed using a Luciferase-Coupled Chemiluminescent Kinase assay (LCCA) format. Kinase activity was measured as the percent ATP remaining following the kinase reaction. Remaining ATP was detected by luciferase-luciferin-coupled chemiluminescence. Specifically, the reaction was initiated by mixing test compounds, 5 μM ATP, 5 μM RRRLSSLRA peptide and 12 nM p70S6K (baculovirus expressed human p70S6 kinase domainresidues 1-421, containing a T412E mutation) in a 20 uL assay buffer (20 mM Tris-HCL pH 7.5, 10 mM MgCl2, 0.02% Triton X-100, 100 mM DTT, 2 mM MnCl2). The mixture is incubated at ambient temperature for 2 hours after which 20 μL luciferase-luciferin mix is added and the chemiluminescent signal read using a Wallac Victor^2 reader. The luciferase-luciferin mix consists of 50 mM HEPES, pH 7.8, 8.5 μg/mL oxalic acid (pH 7.8), 5 (or 50) mM DTT, 0.4% Triton X-100, 0.25 mg/mL coenzyme A, 63 uM AMP, 28 μg/mL luciferin and 40,000 units/mL luciferase.

Assay [2] deals with T2, human Akt1 kinase (kinase domain residues R144-A480, activated with PDK1) (Homo sapiens, UniProt P31749).
T2 construct: made in house
Nature of the assay: Akt1 kinase assay, Luciferase-Coupled Chemiluminescent Kinase assay (LCCA). The note with it: 1 μM ATP, 1.3 nM Akt1; read-out: Akt-1 inhibition IC50. As to the method:
as §1
Biochemical activity of Akt1 kinase was assessed using a Luciferase-Coupled Chemiluminescent Kinase assay (LCCA) format. Kinase activity was measured as the percent ATP remaining following the kinase reaction. Remaining ATP was detected by luciferase-luciferin-coupled chemiluminescence. Specifically, the reaction was initiated by mixing test compounds, 1 μM ATP, 5 μM crosstide peptide and 1.3 nM Akt1 (baculovirus expressed human Akt1 kinase domain residues R144-A480, activated with PDK1) in a 20 uL assay buffer (20 mM Tris-HCL pH 7.5, 10 mM MgCl2, 0.01% Triton X-100, 1 mM DTT, 3 mM MnCl2). The mixture is incubated at ambient temperature for 3 hours after which 20 μL luciferase-luciferin mix is added and the chemiluminescent signal read using a Wallac Victor2 reader. The luciferase-luciferin mix consists of 50 mM HEPES, pH 7.8, 8.5 μg/mL oxalic acid (pH 7.8), 5 (or 50) mM DTT, 0.4% Triton X-100, 0.25 mg/mL coenzyme A, 63 uM AMP, 28 μg/mL luciferin and 40,000 units/mL luciferase.

In assay [3] the target is T3, human Akt2 kinase (kinase domain residues K146-R480) (Homo sapiens, UniProt P31751).
T3 construct: human Akt2 kinase domain residues K146-R480; made in house
Nature of the assay: Akt2 kinase assay, Luciferase-Coupled Chemiluminescent Kinase assay (LCCA). As to conditions: 2 μM ATP, 10 nM Akt2; read-out: Akt-2 inhibition IC50. As to the method:
as §1
Biochemical activity of Akt2 kinase was assessed using a Luciferase-Coupled Chemiluminescent Kinase assay (LCCA) format. Kinase activity was measured as the percent ATP remaining following the kinase reaction. Remaining ATP was detected by luciferase-luciferin-coupled chemiluminescence. Specifically, the reaction was initiated by mixing test compounds, 2 μM ATP, 5 μM crosstide peptide and 10 nM Akt2 (baculovirus expressed human Akt2 kinase domain residues K146-R480) in a 20 uL assay buffer (20 mM Tris-HCL pH 7.5, 10 mM MgCl2, 0.03% Triton X-100, 1 mM DTT, 3 mM MnCl2). The mixture is incubated at ambient temperature for 2 hours after which 20 μL luciferase-luciferin mix is added and the chemiluminescent signal read using a Wallac Victor2 reader. The luciferase-luciferin mix consists of 50 mM HEPES, pH 7.8, 8.5 μg/mL oxalic acid (pH 7.8), 5 (or 50) mM DTT, 0.4% Triton X-100, 0.25 mg/mL coenzyme A, 63 uM AMP, 28 μg/mL luciferin and 40,000 units/mL luciferase.

T2 sequence (P31749 144-480): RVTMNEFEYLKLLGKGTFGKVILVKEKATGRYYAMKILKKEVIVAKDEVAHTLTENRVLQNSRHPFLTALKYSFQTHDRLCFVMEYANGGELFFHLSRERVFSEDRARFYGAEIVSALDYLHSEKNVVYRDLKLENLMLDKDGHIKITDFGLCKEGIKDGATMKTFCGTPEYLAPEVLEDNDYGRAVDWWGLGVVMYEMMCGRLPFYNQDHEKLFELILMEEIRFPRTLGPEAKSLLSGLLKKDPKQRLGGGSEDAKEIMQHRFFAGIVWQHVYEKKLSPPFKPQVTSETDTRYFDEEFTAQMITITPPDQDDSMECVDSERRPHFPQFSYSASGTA
T1 sequence (P23443 1-421 T412E): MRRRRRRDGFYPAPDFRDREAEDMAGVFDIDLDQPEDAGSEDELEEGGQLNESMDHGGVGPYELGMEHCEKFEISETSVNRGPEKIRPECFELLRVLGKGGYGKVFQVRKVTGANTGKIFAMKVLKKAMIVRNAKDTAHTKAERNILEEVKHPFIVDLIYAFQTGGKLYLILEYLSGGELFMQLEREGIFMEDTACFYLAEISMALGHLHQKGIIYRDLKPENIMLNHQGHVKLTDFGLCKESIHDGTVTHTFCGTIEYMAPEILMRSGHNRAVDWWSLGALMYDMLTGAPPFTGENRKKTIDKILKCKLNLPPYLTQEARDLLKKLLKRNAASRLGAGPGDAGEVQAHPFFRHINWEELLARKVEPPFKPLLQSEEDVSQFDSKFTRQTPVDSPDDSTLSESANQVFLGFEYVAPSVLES
T3 sequence (P31751 146-480): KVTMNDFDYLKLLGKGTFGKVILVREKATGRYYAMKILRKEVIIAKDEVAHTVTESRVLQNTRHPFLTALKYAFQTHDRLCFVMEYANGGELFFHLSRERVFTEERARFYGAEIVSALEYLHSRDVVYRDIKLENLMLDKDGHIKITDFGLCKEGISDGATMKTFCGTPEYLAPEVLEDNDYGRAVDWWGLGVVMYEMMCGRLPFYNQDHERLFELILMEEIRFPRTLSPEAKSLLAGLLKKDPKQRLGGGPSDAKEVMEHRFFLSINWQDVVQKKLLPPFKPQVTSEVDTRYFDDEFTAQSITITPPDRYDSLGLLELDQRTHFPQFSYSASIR

For the compound `CN(C)CCOC(c1ccc(Cl)cc1)C1CCN(c2ncnc3[nH]nc(Br)c23)CC1` (stereo not drawn) [Entry 2, 2-{[[1-(3-bromo-1H-pyrazolo[3,4-d]pyrimidin-4-yl)piperidin-4-yl](4-chlorophenyl)methyl]oxy}-N,N-dimethylethanamine], the figures for the IC50 in assay [1], in assay [2] and in assay [3] were below 50 nM, below 50 nM and 50 to 500 nM, respectively.
`CC(C)(C)c1ccc(CN2CCN(c3ncnc4[nH]nc(Br)c34)CC2)cc1` [Entry 7, 3-bromo-4-(4-{[4-(1,1-dimethylethyl)phenyl]methyl}piperazin-1-yl)-1H-pyrazolo[3,4-d]pyrimidine]: the IC50 (commonly the concentration at which inhibition is half-maximal) in assay [1] was below 50 nM; in assay [2] it was above 2000 nM; in assay [3], above 2000 nM.
As for `FC(F)(F)c1ccc(CN2CCN(c3ncnc4[nH]nc(Br)c34)CC2)cc1` [Entry 11, 3-bromo-4-(4-{[4-(trifluoromethyl)phenyl]methyl}piperazin-1-yl)-1H-pyrazolo[3,4-d]pyrimidine], the IC50 in assay [1] is below 50 nM; in assay [2], 500 to 2000 nM; in assay [3], above 2000 nM.
As for `Clc1ccc(CN2CCN(c3ncnc4[nH]nc(Br)c34)CC2)cc1` [Entry 19, 3-bromo-4-{4-[(4-chlorophenyl)methyl]piperazin-1-yl}-1H-pyrazolo[3,4-d]pyrimidine], the figures for the IC50 in assay [1], in assay [2] and in assay [3] were below 50 nM, 50 to 500 nM and above 2000 nM, respectively.
For `Clc1ccc(CN2CCN(c3ncnc4[nH]nc(Br)c34)CC2)cc1Cl` [Entry 27, 3-bromo-4-{4-[(3,4-dichlorophenyl)methyl]piperazin-1-yl}-1H-pyrazolo[3,4-d]pyrimidine], in that order: below 50 nM, 50 to 500 nM and above 2000 nM.
Take `Brc1n[nH]c2ncnc(N3CCN(Cc4ccc(-c5ccccc5)cc4)CC3)c12` [Entry 30, 4-[4-(biphenyl-4-ylmethyl)piperazin-1-yl]-3-bromo-1H-pyrazolo[3,4-d]pyrimidine]: the IC50 in assay [1] is below 50 nM; in assay [2], above 2000 nM; in assay [3], above 2000 nM.
Take `C[C@H]1CN(c2ncnc3[nH]nc(Br)c23)CCN1Cc1ccc(Cl)cc1` [Entry 31, 3-bromo-4-{(3S)-4-[(4-chlorophenyl)methyl]-3-methylpiperazin-1-yl}-1H-pyrazolo[3,4-d]pyrimidine]: the IC50 in assay [1] was below 50 nM; in assay [2] it was 500 to 2000 nM; in assay [3] it was above 2000 nM.
The like results for `COc1ccc(CN2CCN(c3ncnc4[nH]nc(Br)c34)CC2)cc1` [Entry 32, 3-bromo-4-(4-{[4-(methyloxy)phenyl]methyl}piperazin-1-yl)-1H-pyrazolo[3,4-d]pyrimidine] were, in that order, below 50 nM, 500 to 2000 nM and above 2000 nM.
The like results for `O=C(Nc1cccc(C(F)(F)F)c1)N1CCN(c2ncnc3[nH]nc(Br)c23)CC1` [Entry 33, 4-(3-bromo-1H-pyrazolo[3,4-d]pyrimidin-4-yl)-N-[3-(trifluoromethyl)phenyl]piperazine-1-carboxamide] were, in that order, below 50 nM, above 2000 nM and above 2000 nM.
For `Fc1ccc(CN2CCN(c3ncnc4[nH]nc(Br)c34)CC2)cc1` [Entry 34, 3-bromo-4-{4-[(4-fluorophenyl)methyl]piperazin-1-yl}-1H-pyrazolo[3,4-d]pyrimidine], in that order: below 50 nM, 500 to 2000 nM and above 2000 nM.
On to `Brc1n[nH]c2ncnc(N3CCN(Cc4ccc5c(c4)OCCO5)CC3)c12` [Entry 36, 3-bromo-4-[4-(2,3-dihydro-1,4-benzodioxin-6-ylmethyl)piperazin-1-yl]-1H-pyrazolo[3,4-d]pyrimidine], for which the IC50 in assay [1] was below 50 nM; in assay [2] it was above 2000 nM; in assay [3] it was above 2000 nM.
As to `Clc1ccc([C@H](OCCN2CCOCC2)C2CCN(c3ncnc4[nH]nc(Br)c34)CC2)cc1` [Entry 95, 3-bromo-4-(4-{(R)-(4-chlorophenyl)[(2-morpholin-4-ylethyl)oxy]methyl}piperidin-1-yl)-1H-pyrazolo[3,4-d]pyrimidine], the IC50 in assay [1] and in assay [2] was below 50 nM in each case.
For `CN(Cc1ccco1)C(c1ccc(F)cc1)C1CCN(c2ncnc3[nH]nc(Br)c23)CC1` (stereo not drawn) [Entry 96, 1-[1-(3-bromo-1H-pyrazolo[3,4-d]pyrimidin-4-yl)piperidin-4-yl]-1-(4-fluorophenyl)-N-(furan-2-ylmethyl)-N-methylmethanamine], the IC50 in assay [1] was 50 to 500 nM; in assay [2], 500 to 2000 nM.
In the case of `CN(Cc1ccccn1)C(c1ccc(F)cc1)C1CCN(c2ncnc3[nH]nc(Br)c23)CC1` (stereo not drawn) [Entry 97, 1-[1-(3-bromo-1H-pyrazolo[3,4-d]pyrimidin-4-yl)piperidin-4-yl]-1-(4-fluorophenyl)-N-methyl-N-(pyridin-2-ylmethyl)methanamine], the half-inhibitory concentration (IC50) lay in the range of 50 to 500 nM in assay [1] and 500 to 2000 nM in assay [2].
The like results for `CN(C)c1ccc(CN(C)C(c2ccc(F)cc2)C2CCN(c3ncnc4[nH]nc(Br)c34)CC2)cc1` (stereo not drawn) [Entry 98, 4-{[{[1-(3-bromo-1H-pyrazolo[3,4-d]pyrimidin-4-yl)piperidin-4-yl](4-fluorophenyl)methyl}(methyl)amino]methyl}-N,N-dimethylaniline] were, in that order, below 50 nM and 50 to 500 nM.
The like results for `OC(c1ccc2cc[nH]c2c1)N1CCN(c2ncnc3[nH]nc(Br)c23)CC1` (stereo not drawn) [Entry 99, [4-(3-bromo-1H-pyrazolo[3,4-d]pyrimidin-4-yl)piperazin-1-yl](1H-indol-6-yl)methanol] were, in that order, 50 to 500 nM and 500 to 2000 nM.
The like results for `Fc1cc([C@H](OCCN2CCCC2)C2CCN(c3ncnc4[nH]nc(Br)c34)CC2)ccc1Cl` [Entry 100, 3-bromo-4-(4-{(R)-(4-chloro-3-fluorophenyl)[(2-pyrrolidin-1-ylethyl)oxy]methyl}piperidin-1-yl)-1H-pyrazolo[3,4-d]pyrimidine] were, in that order, below 50 nM and below 50 nM.
With `Clc1ccc(OC2CCN(c3ncnc4[nH]nc(Br)c34)CC2)cc1` [Entry 101, 3-bromo-4-{4-[(4-chlorophenyl)oxy]piperidin-1-yl}-1H-pyrazolo[3,4-d]pyrimidine], the IC50 fell in the range of 50 to 500 nM in assay [1] and 500 to 2000 nM in assay [2].
The like results for `CCN(CC)CCO[C@@H](c1ccc(Cl)cc1)C1CCN(c2ncnc3[nH]nc(Br)c23)CC1` [Entry 102, 2-{[(R)-[1-(3-bromo-1H-pyrazolo[3,4-d]pyrimidin-4-yl)piperidin-4-yl](4-chlorophenyl)methyl]oxy}-N,N-diethylethanamine] were, in that order, below 50 nM and below 50 nM.
The like results for `Clc1ccc(OC2CCN(c3ncnc4[nH]nc(Br)c34)CC2)c(NCCN2CCCC2)c1` [Entry 103, 2-{[1-(3-bromo-1H-pyrazolo[3,4-d]pyrimidin-4-yl)piperidin-4-yl]oxy}-5-chloro-N-(2-pyrrolidin-1-ylethyl)aniline] were, in that order, 50 to 500 nM and 50 to 500 nM.

Source of the values: patent US7994172B2, “[1H-pyrazolo[3, 4-D]pyrimidin-4-yl]-piperidine or -piperazine compounds as serine-theoronine kinase modulators (P70s6k, Atk1 and Atk2) for the treatment of immunological, inflammatory and proliferative diseases” (Exelixis, Inc., priority 2004, dated 2011).
